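Cells were grown in 96-well plates and exposed to each compound for 48 hours at five concentrations; endpoints were interpolated linearly between bracketing concentrations, or set to the highest concentration if not reached. At the GI50, growth is halved.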 Activity calls are given as the source filed them. Rule as the data show it: active = GI50 up to about 1.1 µM and inactive = higher.
Tests used:
Test in all cases: inhibition of tumour cell growth, NCI panel, 48 h
CCRF-CEM = system: CCRF-CEM
NCI/ADR-RES = system: NCI/ADR-RES
Hs-578T = system: Hs-578T
HCT-15 = system: HCT-15
EKVX = system: EKVX
HCT-116 = system: HCT-116
SF-295 = system: SF-295
SK-MEL-28 = system: SK-MEL-28
NCI-H460 = system: NCI-H460
MDA-N = system: MDA-N
786-0 = system: 786-0
RXF 393 = system: RXF 393
DU-145 = system: DU-145
Malme-3M = system: Malme-3M
SF-539 = system: SF-539
SK-MEL-2 = system: SK-MEL-2
NCI-H522 = system: NCI-H522
T47D = system: T47D
SNB-75 = system: SNB-75

Structure (SMILES)	GI50 (CCRF-CEM)	GI50 (NCI/ADR-RES)	GI50 (Hs-578T)	GI50 (HCT-15) [µM]	GI50 (EKVX)	GI50 (HCT-116)	GI50 (SF-295)	GI50 (SK-MEL-28)	GI50 (NCI-H460)	GI50 (MDA-N)	GI50 (786-0)	GI50 (RXF 393)	GI50 (DU-145)	GI50 (Malme-3M)	GI50 (SF-539)	GI50 (SK-MEL-2)	GI50 (NCI-H522)	GI50 (T47D)	GI50 (SNB-75)
Cc1cccc(Nc2cn(CCOc3ccccc3)c(=O)[nH]c2=O)c1	52.6 µM (inactive)	1.73 µM (inactive)	6.41 µM (inactive)	49.9	11.3 µM (inactive)	27.5 µM (inactive)	49.9 µM (inactive)	29.5 µM (inactive)	32.7 µM (inactive)	32.4 µM (inactive)	34.2 µM (inactive)	34.8 µM (inactive)	28.5 µM (inactive)						
COc1cccc(N2C(=O)C3c4[nH]c5ccc(C)cc5c4C4CCC(C)CC4C3C2=O)c1 (stereo not given)	31.7 µM (inactive)	> 100 µM (inactive)	23.7 µM (inactive)	> 100	32.6 µM (inactive)	> 100 µM (inactive)	35 µM (inactive)	> 100 µM (inactive)	> 100 µM (inactive)	> 100 µM (inactive)	26.5 µM (inactive)	18.3 µM (inactive)	> 100 µM (inactive)	> 100 µM (inactive)	57.5 µM (inactive)	24.5 µM (inactive)			
COc1ccc(COCC[C@H](C)OC2OC(CO)C(O)C(O)C2O)cc1 (stereo not given in full)	> 100 µM (inactive)	> 100 µM (inactive)	> 100 µM (inactive)	> 100	> 100 µM (inactive)	> 100 µM (inactive)	> 100 µM (inactive)	> 100 µM (inactive)	> 100 µM (inactive)		> 100 µM (inactive)	> 100 µM (inactive)	> 100 µM (inactive)		> 100 µM (inactive)	> 100 µM (inactive)	> 100 µM (inactive)	> 100 µM (inactive)	> 100 µM (inactive)
COc1cc2c(cc1OC)C1c3ccccc3CCN1CCC2.[O-][Cl+3]([O-])([O-])O (stereo not given)	> 100 µM (inactive)	> 100 µM (inactive)		> 100	> 100 µM (inactive)	74.3 µM (inactive)	> 100 µM (inactive)	> 100 µM (inactive)		> 100 µM (inactive)	> 100 µM (inactive)		> 100 µM (inactive)	> 100 µM (inactive)	> 100 µM (inactive)			> 100 µM (inactive)	> 100 µM (inactive)
c1ccc2c(c1)sc1c3cnccc3ccc21		> 100 µM (inactive)	29 µM (inactive)	> 100	6.71 µM (inactive)	> 100 µM (inactive)	85.9 µM (inactive)	> 100 µM (inactive)	24.9 µM (inactive)		> 100 µM (inactive)		> 100 µM (inactive)	66.8 µM (inactive)	82.2 µM (inactive)	> 100 µM (inactive)	> 100 µM (inactive)	> 100 µM (inactive)	> 100 µM (inactive)
CC(C)c1ccc(/C=C2\N=C(c3ccc([N+](=O)[O-])cc3)OC2=O)cc1	55.7 µM (inactive)		> 100 µM (inactive)	> 100	> 100 µM (inactive)	> 100 µM (inactive)	> 100 µM (inactive)	> 100 µM (inactive)	> 100 µM (inactive)	> 100 µM (inactive)	> 100 µM (inactive)	14.9 µM (inactive)	> 100 µM (inactive)	60.3 µM (inactive)	> 100 µM (inactive)	> 100 µM (inactive)	> 100 µM (inactive)	> 100 µM (inactive)	> 100 µM (inactive)
COc1ccccc1NC(=S)N/N=C/c1cccc(C)n1	0.422 µM (active)	3.31 µM (inactive)	11.5 µM (inactive)	2.31	4.67 µM (inactive)	3.4 µM (inactive)	4.32 µM (inactive)	8.53 µM (inactive)	2.49 µM (inactive)	4.17 µM (inactive)	2.9 µM (inactive)		4.29 µM (inactive)	6.24 µM (inactive)	4.89 µM (inactive)	5.64 µM (inactive)	0.279 µM (active)		5.62 µM (inactive)
Cn1cc(C[C@@H](N)C(=O)O)c2ccccc21 [INDOXIMOD]	> 100 µM (inactive)	> 100 µM (inactive)		> 100	> 100 µM (inactive)	> 100 µM (inactive)	> 100 µM (inactive)	> 100 µM (inactive)	> 100 µM (inactive)	> 100 µM (inactive)	> 100 µM (inactive)	20 µM (inactive)	> 100 µM (inactive)	> 100 µM (inactive)	> 100 µM (inactive)	> 100 µM (inactive)	> 100 µM (inactive)	> 100 µM (inactive)	> 100 µM (inactive)
C=C1C(=O)[C@]23[C@H](O)[C@H]1CC[C@H]2[C@@]12CO[C@@]3(O)C[C@@H]1C(C)(C)CC[C@@H]2O [MEGATHYRIN A]	7.59 µM (inactive)	9.66 µM (inactive)	7.29 µM (inactive)	6.95	9.79 µM (inactive)	5.21 µM (inactive)	12.3 µM (inactive)	7.14 µM (inactive)		7.69 µM (inactive)	9.57 µM (inactive)	4.03 µM (inactive)	9.53 µM (inactive)	6.71 µM (inactive)	6.79 µM (inactive)		3.63 µM (inactive)		4.91 µM (inactive)
